{"source": "patent US8211945B2", "about": "“Carba-sugar amine derivative and glycolipid metabolic disorder treating agent containing the same as active ingredient” (Seikagaku Corporation, priority 2001, dated 2012)", "key": {"[1]": {"molecular_target": "T1, human mutant β-galactosidase Y316C (Homo sapiens, UniProt P16278, Y316C)", "T1 construct": "expressed in transfected cells; host or cells: SV40-immortalized skin fibroblasts of a β-galactosidase-deficient knockout mouse", "T1 sequence (P16278 29-677 Y316C)": "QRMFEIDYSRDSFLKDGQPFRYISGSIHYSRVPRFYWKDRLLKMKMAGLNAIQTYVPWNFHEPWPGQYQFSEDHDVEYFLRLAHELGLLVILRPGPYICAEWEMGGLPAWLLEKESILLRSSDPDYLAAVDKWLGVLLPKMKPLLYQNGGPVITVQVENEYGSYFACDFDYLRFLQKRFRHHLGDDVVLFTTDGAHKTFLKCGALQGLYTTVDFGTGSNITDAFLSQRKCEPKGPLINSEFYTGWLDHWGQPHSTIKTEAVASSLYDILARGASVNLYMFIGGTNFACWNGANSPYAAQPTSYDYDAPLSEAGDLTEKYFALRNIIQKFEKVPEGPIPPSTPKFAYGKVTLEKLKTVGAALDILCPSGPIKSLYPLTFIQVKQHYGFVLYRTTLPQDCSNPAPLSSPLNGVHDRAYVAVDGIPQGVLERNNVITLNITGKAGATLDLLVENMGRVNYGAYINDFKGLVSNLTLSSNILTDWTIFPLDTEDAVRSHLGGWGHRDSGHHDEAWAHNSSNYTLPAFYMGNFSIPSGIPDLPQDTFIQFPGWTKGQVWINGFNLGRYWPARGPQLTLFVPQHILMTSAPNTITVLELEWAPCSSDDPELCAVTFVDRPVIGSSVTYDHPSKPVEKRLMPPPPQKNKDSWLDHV", "assay": "Mutant β-galactosidase activity in model cells, 4 days culture", "assay_type": "cell-based"}, "[2]": {"molecular_target": "T2, human mutant β-galactosidase R201C (Homo sapiens, UniProt P16278, R201C)", "T2 construct": "from tissue", "T2 sequence (P16278 29-677 R201C)": "T1 sequence (P16278 29-677 Y316C) with R173C, C288Y", "assay": "Tissue migration and recovery of β-galactosidase activity, 1 week oral administration to recombinant mice", "assay_type": "in vivo", "details": "for β-galactosidase activity, Test group: mice, 1 mM in drinking water, 1 week", "experimental": "One week thereafter, the mice were sacrificed to excise the cerebrum, the cerebellum, the heart, the lungs, the liver, the spleen, the kidney, a muscle (femoral muscle) and plasma. Also, tail tissues were used for the purpose of verifying changes in the β-galactosidase activity in the same individual before and after the administration. Each organ was crushed under ice-cooling using a homogenizer, and then the suspension of crushed cells was centrifuged at 8,000×g for 30 minutes. Thereafter, the supernatant fraction was recovered and used as an enzyme solution. The amount of protein in this enzyme solution was measured by the Bradford method, and the β-galactosidase activity was measured. With regard to the measurement of β-galactosidase activity, the enzyme activity during 30 minutes was measured at 37° C. using 4-methylumbelliferyl-β-D-galactopyranoside as the fluorogenic substrate. […] Three animals were used in each group to calculate the mean value."}}, "note": "Numbering of substitutions follows the chain as printed. Where “and” joins values, the source holds several entries; their conditions need not be identical. Identical values can stand only once.", "data": [{"smiles": "CCCCN1C[C@H](O)[C@@H](O)[C@@H](O)[C@H]1CO", "note": "[Control, N-(n-butyl)-deoxygalactonojirimycin, reference compound]", "values": [{"measurement": "enzyme activity, Control", "setting": "[1]; transferred gene Y316C, control substance 0.5 mM NB-DGJ", "value": 0.23}]}, {"smiles": "CCCCCCCCN[C@@H]1C=C(CO)[C@H](O)C(O)[C@@H]1O", "note": "(stereo partly drawn) [Substance 18, N-octyl-5a-carba-α-L-arabino-hexo-5(5a)-enopyranosylamine]", "values": [{"measurement": "Relative ratio (×100%)", "setting": "[1]; Y316C, substance 18 vs control", "value": "3.44 ×100%"}, {"measurement": "enzyme activity", "setting": "[1]; transferred gene Y316C, 0.2 μM, 4 days", "value": 0.80}, {"measurement": "β-galactosidase activity, Test group", "setting": "[2]; Cerebellum", "value": "55.4 nmol/mg protein/30 minutes"}, {"measurement": "Improving degree", "setting": "[2]; Cerebellum, test group vs control", "value": 5.3, "unit": "Times"}, {"measurement": "β-galactosidase activity, Test group", "setting": "[2]; Cerebrum", "value": "50.5 nmol/mg protein/30 minutes"}, {"measurement": "Improving degree", "setting": "[2]; Cerebrum, test group vs control", "value": 6.0, "unit": "Times"}, {"measurement": "β-galactosidase activity, Test group", "setting": "[2]; Heart", "value": "241.2 nmol/mg protein/30 minutes"}, {"measurement": "Improving degree", "setting": "[2]; Heart, test group vs control", "value": 14.2, "unit": "Times"}, {"measurement": "β-galactosidase activity, Test group", "setting": "[2]; Kidney", "value": "171.1 nmol/mg protein/30 minutes"}, {"measurement": "Improving degree", "setting": "[2]; Kidney, test group vs control", "value": 6.2, "unit": "Times"}, {"measurement": "β-galactosidase activity, Test group", "setting": "[2]; Liver", "value": "186.8 nmol/mg protein/30 minutes"}, {"measurement": "Improving degree", "setting": "[2]; Liver, test group vs control", "value": 4.7, "unit": "Times"}, {"measurement": "β-galactosidase activity, Test group", "setting": "[2]; Lungs", "value": "98.9 nmol/mg protein/30 minutes"}, {"measurement": "Improving degree", "setting": "[2]; Lungs, test group vs control", "value": 12.4, "unit": "Times"}, {"measurement": "β-galactosidase activity, Test group", "setting": "[2]; Muscle (femoral muscle)", "value": "91.4 nmol/mg protein/30 minutes"}, {"measurement": "Improving degree", "setting": "[2]; Muscle (femoral muscle), test group vs control", "value": 11.3, "unit": "Times"}, {"measurement": "β-galactosidase activity, Test group", "setting": "[2]; Plasma", "value": "23.0 nmol/mg protein/30 minutes"}, {"measurement": "Improving degree", "setting": "[2]; Plasma, test group vs control", "value": 7.9, "unit": "Times"}, {"measurement": "β-galactosidase activity, Test group", "setting": "[2]; Spleen", "value": "266.2 nmol/mg protein/30 minutes"}, {"measurement": "Improving degree", "setting": "[2]; Spleen, test group vs control", "value": 17.1, "unit": "Times"}, {"measurement": "β-galactosidase activity, After feeding", "setting": "[2]; Tail (administered group), after 1 week feeding", "value": "518.8 nmol/mg protein/30 minutes"}, {"measurement": "Improving degree", "setting": "[2]; Tail (administered group), after vs before feeding, same individual", "value": "~8 Times and 6.7 Times"}, {"measurement": "β-galactosidase activity improved in average in the test group", "setting": "[2]; average of organs, test group vs control", "value": 9.1, "unit": "times"}, {"measurement": "level of the activity obtained in the cerebrum and the cerebellum", "setting": "[2]; cerebrum and cerebellum, test group", "value": "about 50 nmol/mg protein/30 minutes"}]}]}
